Test results published in US20170334899A1, “AMINO-SUBSTITUTED ISOTHIAZOLES” (Bayer Pharma Aktiengesellschaft, priority 2014, published 2017).

Each molecule was assayed against T1, human kinase Mps-1 (Homo sapiens, UniProt P33981) (assay: Mps-1 kinase assay (TR-FRET)). Settings: Mps-1 TR-FRET kinase assay; avg; read-out: Mps1 avg (IC50 [mol/l]).
T1 construct: N-terminally GST-tagged human full length recombinant Mps-1 kinase; GST (N); purchased Invitrogen, Karslruhe, Germany PV4071
T1 sequence (P33981 1-857): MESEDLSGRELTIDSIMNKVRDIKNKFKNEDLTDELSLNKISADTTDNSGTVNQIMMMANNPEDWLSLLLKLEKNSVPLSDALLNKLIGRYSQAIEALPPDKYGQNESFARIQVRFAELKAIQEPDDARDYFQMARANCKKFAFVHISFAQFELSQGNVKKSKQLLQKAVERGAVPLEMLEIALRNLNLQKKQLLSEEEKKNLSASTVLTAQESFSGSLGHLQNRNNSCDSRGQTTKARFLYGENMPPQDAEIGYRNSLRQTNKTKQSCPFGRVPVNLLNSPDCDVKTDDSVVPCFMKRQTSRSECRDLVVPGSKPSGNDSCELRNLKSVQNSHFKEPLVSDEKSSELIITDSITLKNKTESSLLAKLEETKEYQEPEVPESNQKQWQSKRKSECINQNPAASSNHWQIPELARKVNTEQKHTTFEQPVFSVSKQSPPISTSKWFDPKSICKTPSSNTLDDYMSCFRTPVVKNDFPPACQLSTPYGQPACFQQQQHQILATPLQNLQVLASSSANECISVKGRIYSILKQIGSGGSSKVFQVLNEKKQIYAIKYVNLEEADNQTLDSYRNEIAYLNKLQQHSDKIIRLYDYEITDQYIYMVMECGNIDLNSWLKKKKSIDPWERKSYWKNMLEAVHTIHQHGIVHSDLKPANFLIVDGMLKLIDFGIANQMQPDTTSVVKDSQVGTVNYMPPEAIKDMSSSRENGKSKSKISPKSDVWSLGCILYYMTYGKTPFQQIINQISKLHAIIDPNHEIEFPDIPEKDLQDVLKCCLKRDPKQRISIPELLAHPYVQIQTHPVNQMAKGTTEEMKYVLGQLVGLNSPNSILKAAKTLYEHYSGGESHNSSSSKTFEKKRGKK
Type: biochemical
In short: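 GST-tagged full-length recombinant human Mps-1 (~0.5 nM) pre-incubated 15 min with compound, then reacted 60 min at 22 °C with 10 μM ATP and 1 μM biotinylated peptide in Hepes pH 7.7 buffer. EDTA-stopped; TR-FRET (Eu anti-phospho-Ser/Thr to SA-XLent) 665/620 nm ratio normalised to no-inhibitor and no-enzyme controls.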

IC50	Compound
≥ 20 µM	Cc1nsc(Nc2cnc3ccccc3n2)c1C(=O)Nc1cccc(C(=O)N[C@H](C(=O)OC(C)(C)C)[C@@H](C)OC(C)(C)C)c1 [Example 57, tert-Butyl O-tert-butyl-N-[3-({[3-methyl-5-(quinoxalin-2-ylamino)-1,2-thiazol-4 yl]carbonyl}amino)-benzoyl]threoninate]
> 20 µM	Cc1nsc(Nc2cnc(C(F)(F)F)cn2)c1C(=O)Nc1ccc(F)c(OCC2CCN(CC(F)(F)F)C2)c1 (centres unmarked) [Example 318, N-(4-fluoro-3-{[1-(2,2,2-trifluoroethyl)pyrrolidin-3-yl]methoxy}phenyl)-3-methyl-5-{[5-(trifluoromethyl)pyrazin-2-yl]amino}-1,2-thiazole-4-carboxamide]
> 20 µM	Cc1nsc(Nc2cnc(C(F)(F)F)cn2)c1C(=O)Nc1ccc(OC[C@H]2CCN(CC(F)(F)F)C2)nc1 [Example 404, 3-Methyl-N-(6-{[(3S)-1-(2,2,2-trifluoroethyl)pyrrolidin-3-yl]methoxy}pyridin-3-yl)-5-{[5-(trifluoromethyl)pyrazin-2-yl]amino}-1,2-thiazole-4-carboxamide]
> 20 µM	Cc1nsc(Nc2ccc(C#N)cn2)c1C(=O)Nc1ccc(OC[C@H]2CCN(CC(F)(F)F)C2)nc1 [Example 405, 5-[(5-Cyanopyridin-2-yl)amino]-3-methyl-N-(6-{[(35)-1-(2,2,2-trifluoroethyl)pyrrolidin-3-yl]methoxy}pyridin-3-yl)-1,2-thiazole-4-carboxamide]
> 20 µM	CCN1CCC(Oc2ccc(NC(=O)c3c(C)nsc3Nc3cnc(C(F)(F)F)cn3)cn2)C(F)(F)C1 (centres unmarked) [Example 406, N-{6-[(1-Ethyl-3,3-difluoropiperidin-4-yl)oxy]pyridin-3-yl}-3-methyl-5-{[5-(trifluoromethyl)pyrazin-2-yl]amino}-1,2-thiazole-4-carboxamide]
> 20 µM	Cc1nsc(Nc2cnc(C(F)(F)F)cn2)c1C(=O)Nc1ccc(OCCN2CCC(F)(F)CC2)nc1 [Example 407, N-{6-[2-(4,4-Difluoropiperidin-1-yl)ethoxy]pyridin-3-yl}-3-methyl-5-{[5-(trifluoromethyl)pyrazin-2-yl]amino}-1,2-thiazole-4-carboxamide]
> 20 µM	CCN1CC[C@H](Oc2ccc(NC(=O)c3c(C)nsc3Nc3cnc(C(F)(F)F)cn3)cn2)[C@H](F)C1 [Example 424, N-(6-{[(3R,4S)-1-Ethyl-3-fluoropiperidin-4-yl]oxy}pyridin-3-yl)-3-methyl-5-{[5-(trifluoromethyl)pyrazin-2-yl]amino}-1,2-thiazole-4-carboxamide]
≥ 20 µM	Cc1nsc(Nc2cnc(C(F)(F)F)cn2)c1C(=O)Nc1ccc(OCCNC(=O)C(F)(F)F)nc1 [Example 425, 3-Methyl-N-(6-{2-[(trifluoroacetyl)amino]ethoxy}pyridin-3-yl)-5-{[5-(trifluoro-methyl)pyrazin-2-yl]amino}-1,2-thiazole-4-carboxamide]
≥ 20 µM	Cc1nsc(Nc2cnc(C(F)(F)F)cn2)c1C(=O)Nc1ccc(F)c(OCCCNC(=O)C(F)(F)F)c1 [Example 427, N-(4-Fluoro-3-{3-[(trifluoroacetyl)amino]propoxy}phenyl)-3-methyl-5-{[5-(trifluoro-methyl)pyrazin-2-yl]amino}-1,2-thiazole-4-carboxamide]
> 20 µM	Cc1nsc(Nc2cnc(C(F)(F)F)cn2)c1C(=O)Nc1ccc(OCCCNC(=O)C(F)(F)F)nc1 [Example 428, 3-Methyl-N-(6-{3-[(trifluoroacetyl)amino]propoxy}pyridin-3-yl)-5-{[5-(trifluoro-methyl)pyrazin-2-yl]amino}-1,2-thiazole-4-carboxamide]
> 20 µM	Cc1nsc(Nc2cnc(C(F)(F)F)cn2)c1C(=O)Nc1ccc(OCCN(C)C(=O)OC(C)(C)C)nc1 [Example 429, tert-Butyl methyl{2-[(5-{[(3-methyl-5-{[5-(trifluoromethyl)pyrazin-2-yl]amino}-1,2-thiazol-4-yl)carbonyl]amino}pyridin-2-yl)oxy]ethyl}carbannate]
